Measurements taken from article PMC12029069, “Synthesis and Evaluation of Antitumor and Anti-Angiogenesis Activity of Pyrone- or Pyridone-Embedded Analogs of Cortistatin A” (Marine Drugs, 2025).
Like-named read-outs stand apart in the source and are kept apart here. Marks after values point to notes of the source that are not given here.

How the values were obtained:
[1] = test system: human epidermoid carcinoma KB3-1 cells; details: cited from earlier work
HUVECs [2] = details: cited from earlier work; for S.I. (selective index: IC50 against KB3-1 cells/IC50 against HUVECs): KB3-1 over HUVECs
[3] = test system: human epidermoid carcinoma KB3-1 cells; test: Antiproliferative activity against KB3-1 cancer cells (WST-8, 72 h); type: cell-based
Experimental: KB3-1 cells were cultured in RPMI-1640 medium supplemented with 10% heat-inactivated fetal bovine serum and kanamycin (50 μg/mL). Cells were plated into 96-well microplates at 2 × 10^3 cells/100 μL assay medium/well, and various concentrations of test compounds were added to each well as a 5% DMSO/EtOH or EtOH solution (1 µL). The plates were incubated at 37 °C in a humidified atmosphere of 5% CO2 for 72 h, and cell proliferation was determined by WST-8 colorimetric assay as above, and the averaged IC50 values of the triplicate experiment are shown in Table 1.

HUVECs [4] = test: Antiproliferative activity against HUVECs (WST-8, 72 h); type: cell-based, human; details: for IC50: 72 h, WST-8, average of triplicate; for S.I. (selective index: IC50 against KB3-1 cells/IC50 against HUVECs): KB3-1 over HUVECs
Experimental: HUVECs (5 × 10^5 cells/vial) were purchased from Kurabo Inc. and grown in HuMedia-EG2 medium with growth supplements (Kurabo, Osaka, Japan). HUVECs in the culture medium were plated into each well of 96-well plates (2 × 10^3 cells/well/100 µL). After 24 h, the serially diluted compounds as a 5% DMSO/EtOH or EtOH solution (1 µL) were added, and then the plates were incubated for an additional 72 h in a humidified atmosphere of 5% CO2 at 37 °C. The cell proliferation was detected by WST-8 colorimetric reagent (Nacalai Tesque, Inc., Kyoto, Japan). The IC50 value was determined by linear interpolation from the growth inhibition curve, and the averaged IC50 values of the triplicate experiment are shown in Table 1.

[5] = test system: Murine sarcoma S180 cells; test: In vivo antitumor effect in mice inoculated with sarcoma S180 cells; details: every other day for 14 days, S180 s.c. in ddY mice
Text: Murine sarcoma S180 cells (1 × 10^6 cells/body) were implanted subcutaneously into the right ventral flank of female ddY mice (6 weeks old). After one week from implantation, analog 19 was orally administered on every other day for 14 days (total 7 times) as a suspension in 1% CMC-Na. Then, the tumor was isolated and weighed to calculate the inhibition ratio. The control group and the group treated with the testing compound consisted of six mice each in this study.

[6] = test system: new blood vessels in the Matrigel plug induced by bFGF; test: In vivo Matrigel plug assay (bFGF-induced angiogenesis, hemoglobin content); design: species or system mice; details: 0.3 mg/kg oral, every other day (5 times), day 10, mean ± SD
Experimental: All animal procedures were approved by the Committee on Animal Experimentation of Osaka University (Approval number: DouYaku 24-8-1). The measurements of in vivo angiogenesis using Matrigel plugs were performed as described previously. An aliquot (250 µL) of Matrigel containing 200 ng/mL of bFGF and 100 U/mL of heparin was injected subcutaneously into the ventral side of female ddY mice (6 weeks old, N = 4, Japan SLC, Inc., Shizuoka, Japan). Then, analog 19 was orally administered on every other day (total 5 times: day 1, 3, 5, 7, and 9) as a suspension in 1% sodium carboxymethyl cellulose (CMC-Na). At day 10, the Matrigel plugs were photographed and removed. The levels of new vessels were quantified by measuring the hemoglobin of the Matrigel plug (µg hemoglobin/mg Matrigel) with the Drabkin reagent Kit.

[7] = Body weight of mice during the Matrigel plug assay (acute toxicity); type: in vivo; details: mean ± SD
Experimental: The body weight of mice of the control group (bFGF (+) or (−)) and the groups treated with the testing compound (0.1, 0.3, and 1 mg/kg) at day 1 and day 9 were measured. The mean activities of aspartate aminotransferase (AST) and alanine aminotransferase (ALT) in mouse serum at day 10 of control group and the 1 mg/kg treated group were measured using the LabAssay^TM AST or ALT kit (FUJIFILM Wako Pure Chemical Co., Osaka, Japan), respectively.

[8] = Hepatic toxicity: AST and ALT activities in mouse serum; type: in vivo, mice; details: 1 mg/kg oral treatment group, day 9
Experimental: The body weight of mice of the control group (bFGF (+) or (−)) and the groups treated with the testing compound (0.1, 0.3, and 1 mg/kg) at day 1 and day 9 were measured. […]

CDK8 = details: ref [37]; cited from earlier work
[9] = Homo sapiens, KB 3-1, WST-8, average of triplicate

C[C@]12CCC3=CC4=C(CCCC4=O)O[C@H]3[C@@H]1CC[C@@H]2c1ccc2ccncc2c1 [Compound 2]
IC50 ([1]; reported value ref [21]): 10500 nM
S.I. (selective index: IC50 against KB3-1 cells/IC50 against HUVECs) (HUVECs [2]; ref [21]): 300 ^c
IC50 (HUVECs [2]; reported value ref [21]): 35 nM

CC(=O)NCC1CC(=O)C2=C(C1)O[C@@H]1C(=C2)CC[C@]2(C)[C@@H](c3ccc4ccncc4c3)CC[C@@H]12 (stereo partly shown) [Compound 3]
IC50 ([1]; reported value ref [21]): 8200 nM
S.I. (selective index: IC50 against KB3-1 cells/IC50 against HUVECs) (HUVECs [2]; ref [21]): 3150 ^c
IC50 (HUVECs [2]; reported value ref [21]): 2.6 nM

Cc1cc2c(c(=O)o1)C=C1CC[C@]3(C)[C@@H](c4ccc5ccncc5c4)CC[C@H]3[C@@H]1O2 [Compound 7, (3S,3aR,11aS,11bR)-3-(Isoquinolin-7-yl)-3a,9-dimethyl-1,2,3,3a,4,5,11a,11b-octahydro-7H-cyclopenta[h]pyrano[4,3-b]chromen-7-one]
IC50 [3, 9]: 62800 nM
IC50 (HUVECs [4]; Homo sapiens, HUVEC): 90 nM
S.I. (selective index: IC50 against KB3-1 cells/IC50 against HUVECs) (HUVECs [4]): 700

Cc1oc(=O)c2c(c1CO)O[C@@H]1C(=C2)CC[C@]2(C)[C@@H](c3ccc4ccncc4c3)CC[C@@H]12 [Compound 11, (3S,3aR,11aS,11bR)-10-(Hydroxymethyl)-3-(isoquinolin-7-yl)-3a,9-dimethyl-1,2,3,3a,4,5,11a,11b-octahydro-7H-cyclopenta[h]pyrano[4,3-b]chromen-7-one]
IC50 [3, 9]: 10000 nM
IC50 (HUVECs [4]; Homo sapiens, HUVEC): 20 nM
S.I. (selective index: IC50 against KB3-1 cells/IC50 against HUVECs) (HUVECs [4]): 500

C[C@]12CCC3=Cc4c(cc[nH]c4=O)O[C@H]3[C@@H]1CC[C@@H]2c1ccc2ccncc2c1 [Compound 13, (3S,3aR,11aS,11bR)-3-(Isoquinolin-7-yl)-3a-methyl-2,3,3a,4,5,8,11a,11b-octahydrocyclopenta[7, 8]chromeno[3,2-c]pyridin-7(1H)-one]
IC50 [3, 9]: 11000 nM
IC50 (HUVECs [4]; Homo sapiens, HUVEC): 10 nM
S.I. (selective index: IC50 against KB3-1 cells/IC50 against HUVECs) (HUVECs [4]): 1100
fold higher potency than 7 against HUVECs (HUVECs [4]; relative to analog 7): 9 fold

Cn1ccc2c(c1=O)C=C1CC[C@]3(C)[C@@H](c4ccc5ccncc5c4)CC[C@H]3[C@@H]1O2 [Compound 15, (3S,3aR,11aS,11bR)-3-(Isoquinolin-7-yl)-3a,8-dimethyl-2,3,3a,4,5,8,11a,11b-octahydrocyclopenta[7, 8]chromeno[3,2-c]pyridin-7(1H)-one]
IC50 [3, 9]: 8600 nM
IC50 (HUVECs [4]; Homo sapiens, HUVEC): 3 nM
S.I. (selective index: IC50 against KB3-1 cells/IC50 against HUVECs) (HUVECs [4]): 2870
fold potency over 13 against HUVECs (HUVECs [4]; relative to analog 13): 3.3 fold

Cn1cc(CO)c2c(c1=O)C=C1CC[C@]3(C)[C@@H](c4ccc5ccncc5c4)CC[C@H]3[C@@H]1O2 [Compound 19, (3S,3aR,11aS,11bR)-10-(Hydroxymethyl)-3-(isoquinolin-7-yl)-3a,8-dimethyl-2,3,3a,4,5,8,11a,11b-octahydrocyclopenta[7, 8]chromeno[3,2-c]pyridin-7(1H)-one]
tumor growth inhibition, reduction compared to the control group ([5]; 0.1 mg/kg oral): ~ 75%
tumor weight reduction ([5]; 1 mg/kg oral): more than 85%
IC50 ([3]; WST-8, average of triplicate): 6400 nM
Hb Content (hemoglobin µg/isolated Matrigel mg) [6]: 2.42 ± 0.79 µg/mg
IC50 (HUVECs [4]): 1 nM
S.I. (selective index: IC50 against KB3-1 cells/IC50 against HUVECs) (HUVECs [4]): 6400
Body Weight Day 1 ([7]; 0.1 mg/kg oral): 25.70 ± 0.58 g
Body Weight Day 9 ([7]; 0.1 mg/kg oral): 26.12 ± 0.58 g
Body Weight Day 1 ([7]; 0.3 mg/kg oral): 25.60 ± 0.64 g
Body Weight Day 9 ([7]; 0.3 mg/kg oral): 26.14 ± 0.62 g
Body Weight Day 1 ([7]; 1.0 mg/kg oral): 26.30 ± 0.41 g
ALT (alanine aminotransferase activity) [8]: 48.4 ± 3.3 IU/L
AST (aspartate aminotransferase activity) [8]: 57.8 ± 4.5 IU/L

CC(=O)NCc1c2c(c(=O)n(C)c1C)C=C1CC[C@]3(C)[C@@H](c4ccc5ccncc5c4)CC[C@H]3[C@@H]1O2 [Compound 27, N-(((3S,3aR,11aS,11bR)-3-(Isoquinolin-7-yl)-3a,8,9-trimethyl-7-oxo-1,2,3,3a,4,5,7,8,11a,11b-decahydrocyclopenta[7, 8]chromeno[3,2-c]pyridin-10-yl)methyl)acetamide]
IC50 ([3]; WST-8, average of triplicate): 13400 nM
IC50 (HUVECs [4]): 10 nM
S.I. (selective index: IC50 against KB3-1 cells/IC50 against HUVECs) (HUVECs [4]): 1340

CN(C)[C@H]1CC[C@@]2(C)[C@@H](CC[C@@H]3[C@@H]2CC[C@]2(C)[C@@H](c4ccc5ccncc5c4)CC[C@@H]32)C1 [Compound 28, reference compound]
IC50 [3, 9]: 4800 nM
IC50 (CDK8): 24 nM
IC50 (HUVECs [4]; Homo sapiens, HUVEC): 560 nM
S.I. (selective index: IC50 against KB3-1 cells/IC50 against HUVECs) (HUVECs [4]): 8.6

Cortistatin A [Compound 1]
IC50 ([1]; reported value ref [8]): 7000 nM
S.I. (selective index: IC50 against KB3-1 cells/IC50 against HUVECs) (HUVECs [2]; ref [8]): 3900 ^b
IC50 (HUVECs [2]; reported value ref [8]): 1.8 nM
